# In US20100331315A1, “RHODANINES AND RELATED HETEROCYCLES AS KINASE INHIBITORS” (priority 2009, published 2010):
# Like-named read-outs stand apart in the source and are kept apart here.
# How the values were obtained:
# SUM-149PT = experiment: Alamar Blue cell proliferation assay, SUM-149PT; assay type: cell-based; settings: Homo sapiens, SUM149PT
# Procedure: (§1) A representative cell-proliferation assay protocol using Alamar Blue dye (stored at 4° C., use 20 ul per well) is described hereafter.
# (§2) a. Split and trypsinize cells.
# (§3) b. Count cells using hemocytometer.
# (§4) c. Plate 4,000-5,000 cells per well in 100 μl of medium and seed into a 96-well plate according to the following plate layout. Add cell culture medium only to wells B10 to B12. Wells B1 to B9 have cells but no compound added.
# (§5) d. Add 100 μl of 2× drug dilution to each well in a concentration shown in the plate layout above. At the same time, add 100 μl of media into the control wells (wells B10 to B12). Total volume is 200 μl/well.
# (§6) e. Incubate four (4) days at 37° C., 5% CO2 in a humidified incubator.
# (§7) f. Add 20 μl Alamar Blue reagent to each well.
# (§8) g. Incubate for four (4) hours at 37° C., 5% CO2 in a humidified incubator.
# (§9) h. Record fluorescence at an excitation wavelength of 544 nm and emission wavelength of 590 nm using a microplate reader.
# (§10) In the assays, cells are cultured with a test compound for approximately four days, the dye is then added to the cells and fluorescence of […] dye is detected after approximately four hours. Different types of cells can be utilized in the assays (e.g., HCT-116 human colorectal carcinoma cells, PC-3 human prostatic cancer cells and MiaPaca human pancreatic carcinoma cells).
# recombinant human PIM2 = recombinant human PIM2 (Homo sapiens, UniProt Q9P1W9); experiment: PIM-2 assay (33P-ATP filter plate); assay type: biochemical; settings: for IC50: Table 5; for inhibition at 2.5 µM: Table 6, read-out: PIM2: % inh @ 2.5 uM
# Sequence of recombinant human PIM2 (Q9P1W9 whole entry): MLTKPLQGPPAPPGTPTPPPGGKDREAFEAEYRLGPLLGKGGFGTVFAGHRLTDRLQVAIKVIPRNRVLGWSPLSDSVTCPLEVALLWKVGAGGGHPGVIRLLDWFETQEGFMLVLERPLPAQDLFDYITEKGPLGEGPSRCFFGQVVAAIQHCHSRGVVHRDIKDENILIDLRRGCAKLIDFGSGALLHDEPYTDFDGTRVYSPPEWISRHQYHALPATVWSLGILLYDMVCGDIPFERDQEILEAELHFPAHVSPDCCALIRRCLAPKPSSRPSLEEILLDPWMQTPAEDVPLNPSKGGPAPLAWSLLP
# Procedure: PIM-2 Assay Method: Test compounds dissolved and diluted in DMSO (2 μl) were added to a reaction mixture comprising 10 μl of 5× Reaction Buffer (40 mM MOPS pH 7.0, 5 mM EDTA), 10 μl of recombinant human PIM2 solution (4 ng PIM-2 dissolved in dilution buffer (20 mM MOPS pH 7.0; EDTA 1 mM; 5% Glycerol; 0.01% Brij 35; […]; […] 2-mercaptoethanol; 1 mg/ml BSA)) and 8 ul of water. Reactions were initiated by the addition of 10 ul of ATP Solution (49% (15 mM MgCl2; 75 uM ATP) 1% ([γ-^33P]ATP: Stock 1 mCi/1000; 3000Ci/mmol (Perkin Elmer)) and 10 ul of substrate peptide solution (RSRSSYPAGT, dissolved in water at a concentration of 1 mM), Reactions were maintained for 10 min at 30° C. The reactions were quenched with 100 ul of 0.75% Phosphoric acid, then transferred to and filtered through a Phosphocellulose filter plate (Millipore, MSPH-N6B-50). After washing each well 4 times with 0.75% Phosphoric acid, scintillation fluid (20 uL) was added to each well and the residual radioactivity was measured using a Wallac luminescence counter.
# MDAMB453 = experiment: Alamar Blue cell proliferation assay, MDAMB453; assay type: cell-based; settings: Homo sapiens
# Procedure: as §1, §2, §3, §4, §5, §6, §7, §8, §9, §10
# recombinant human CK2 = molecular target: T1, recombinant human CK2 (Homo sapiens, UniProt P68400); experiment: CK2 assay (cell-free, 33P-ATP filter plate); assay type: biochemical
# T1 construct: purchased Upstate
# T1 sequence (P68400 whole entry): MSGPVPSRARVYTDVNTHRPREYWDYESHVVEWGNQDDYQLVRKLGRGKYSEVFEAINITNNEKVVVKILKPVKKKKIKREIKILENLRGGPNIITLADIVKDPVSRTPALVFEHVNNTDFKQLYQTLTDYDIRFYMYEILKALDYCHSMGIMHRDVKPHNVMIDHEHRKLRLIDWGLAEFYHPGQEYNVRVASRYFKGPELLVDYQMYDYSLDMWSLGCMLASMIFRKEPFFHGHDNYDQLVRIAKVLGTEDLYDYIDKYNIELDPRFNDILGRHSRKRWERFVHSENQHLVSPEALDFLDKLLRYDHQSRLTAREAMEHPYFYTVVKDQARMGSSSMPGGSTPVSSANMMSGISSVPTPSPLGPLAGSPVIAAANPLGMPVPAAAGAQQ
# T1 sequence (P67870 whole entry partner): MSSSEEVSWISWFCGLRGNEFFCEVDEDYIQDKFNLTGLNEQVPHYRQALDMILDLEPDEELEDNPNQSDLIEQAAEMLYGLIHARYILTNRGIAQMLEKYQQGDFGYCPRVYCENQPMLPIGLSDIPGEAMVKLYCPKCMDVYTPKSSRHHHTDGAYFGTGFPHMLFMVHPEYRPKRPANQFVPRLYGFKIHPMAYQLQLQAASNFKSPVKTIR
# Procedure: Modulatory activity of compounds described herein was assessed in vitro in cell-free CK2 assays by the following method.
# Test compounds in aqueous solution were added at a volume of 10 microliters, to a reaction mixture comprising 10 microliters Assay Dilution Buffer (ADB; 20 mM MOPS, pH 7.2, 25 mM beta-glycerolphosphate, 5 mM EGTA, 1 mM sodium orthovanadate and 1 mM dithiothreitol), 10 microliters of substrate peptide (RRRDDDSDDD, dissolved in ADB at a concentration of 1 mM), 10 microliters of recombinant human CK2 (25 ng dissolved in ADB; Upstate). Reactions were initiated by the addition of 10 microliters of ATP Solution (90% 75 mM MgCl2, 75 micromolar ATP dissolved in ADB; 10% [γ-^33P]ATP (stock 1 mCi/100 μl; 3000 Ci/mmol (Perkin Elmer) and maintained for 10 minutes at 30 degrees C. The reactions were quenched with 100 microliters of 0.75% phosphoric acid, then transferred to and filtered through a phosphocellulose filter plate (Millipore). After washing each well 5 times with 0.75% phosphoric acid, the plate was dried under vacuum for 5 min and, following the addition of 15 ul of scintillation fluid to each well, the residual radioactivity was measured using a Wallac luminescence counter.
# MV-4-11 = experiment: Alamar Blue cell proliferation assay, MV-4-11; assay type: cell-based; settings: Homo sapiens, MV4-11, MV-4-11, Table 5, read-out: AB: MV-4-11 IC50
# Procedure: as §1, §2, §3, §4, §5, §6, §7, §8, §9, §10
# K-562 = experiment: Alamar Blue cell proliferation assay, K-562; assay type: cell-based; settings: Homo sapiens, K562, K-562, Table 5, read-out: AB: K-562 IC50
# Procedure: as §1, §2, §3, §4, §5, §6, §7, §8, §9, §10
# BxPC3 = experiment: Alamar Blue cell proliferation assay, BxPC3; assay type: cell-based; settings: Homo sapiens
# Procedure: as §1, §2, §3, §4, §5, §6, §7, §8, §9, §10
# recombinant PIM-1 = recombinant PIM-1 (Homo sapiens, UniProt P11309); experiment: PIM-1 assay (33P-ATP filter plate); assay type: biochemical; settings: Table 5; read-out: PIM1: IC50
# Sequence of recombinant PIM-1 (P11309 whole entry): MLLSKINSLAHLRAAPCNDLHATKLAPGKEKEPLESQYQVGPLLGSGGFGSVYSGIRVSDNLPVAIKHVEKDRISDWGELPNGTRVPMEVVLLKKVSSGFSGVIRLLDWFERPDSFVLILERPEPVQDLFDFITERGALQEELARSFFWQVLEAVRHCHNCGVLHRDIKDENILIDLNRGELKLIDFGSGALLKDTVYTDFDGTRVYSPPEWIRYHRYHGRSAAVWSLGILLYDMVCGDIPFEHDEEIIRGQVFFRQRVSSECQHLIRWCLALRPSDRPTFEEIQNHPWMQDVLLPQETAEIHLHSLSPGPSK
# Procedure: The following procedure was used to assay the PIM-1 kinase activity of compounds of the invention. Other methods for assaying PIM-1 and other PIM kinases, as well as methods to assay for activity against the various kinases are known in the art.
# In a final reaction volume of 50 ul, recombinant PIM-1 (1 ng) was incubated with 12 mM MOPS pH 7.0, 0.4 mM EDTA, glycerol 1%, brij 35 0.002%, 2-mercaptoethanol 0.02%, BSA 0.2 mg/ml, 100 uM KKRNRTLTK, 10 mM MgAcetate, 15 uM ATP, [γ-^33P-ATP] (specific activity approx. 500 cpm/pmol), DMSO 4% and test inhibitor compound at the required concentration. The reaction was initiated by the addition of the Magnesium ATP mixture. After 40 min incubation at 23° C., the reactions were quenched by the addition of 100 ul 0.75% Phosphoric acid, and the labeled peptide collected by filtration through a phosphocellulose filter plate. The plate was washed 4 times with 0.075% phosphoric acid (100 ul per well) and then, after the addition of scintillation fluid (20 ul per well), the counts were measured by a scintillation counter.
# [1] = Table 5, read-out: AB: SUM-149PT IC50
# [2] = MDA-MB-453, MDAMB453, Table 5, read-out: AB: MDAMB453 IC50
# [3] = BXPC-3, BxPC3, Table 5, read-out: AB: BxPC3 IC50
# [4] = Table 6, read-out: AB: SUM-149PT IC50
# [5] = MDA-MB-453, MDAMB453, Table 6, read-out: AB: MDAMB453 IC50
# [6] = BXPC-3, BxPC3, Table 6, read-out: AB: BxPC3 IC50
SMILES,IC50 (SUM-149PT; [1]),IC50 (recombinant human PIM2),IC50 (MDAMB453; [2]),IC50 (recombinant human CK2; Table 5),IC50 (MV-4-11),IC50 (K-562),IC50 (BxPC3; [3]),IC50 (SUM-149PT; [4]),inhibition at 2.5 µM (recombinant human PIM2),IC50 (MDAMB453; [5]),IC50 (recombinant human CK2; Table 6),IC50 (BxPC3; [6]),IC50 (recombinant PIM-1)
O=C1NC(=O)/C(=C\c2ccc(F)c(-c3cncc(N4CCCN(C(=O)Nc5ccccc5)CC4)n3)c2)S1,6150 nM,< 50 nM,10 µM,< 50 nM,> 10000 nM,4300 nM,18.8 µM,–,–,–,–,–,–
CC(C)(C)C(=O)N1CCCN(c2cncc(-c3cc(/C=C4/SC(=O)NC4=O)ccc3F)n2)CC1,1020 nM,< 50 nM,0.318 µM,< 50 nM,374 nM,316 nM,12.7 µM,–,–,–,–,–,–
C[C@H](Nc1cncc(-c2csc(/C=C3\SC(=O)NC3=O)c2)n1)C1CC1,–,–,–,–,–,–,–,8720 nM,99.4%,19.2 µM,24 nM,16.7 µM,–
COC(=O)N1CCCN(c2cncc(-c3cc(/C=C4/SC(=O)NC4=O)ccc3F)n2)CC1,2050 nM,< 50 nM,3.59 µM,< 50 nM,2520 nM,3650 nM,18.9 µM,–,–,–,–,–,–
C[C@H](Nc1cncc(-c2cccc(/C=C3\SC(=O)NC3=O)c2)n1)C1CC1,–,–,–,–,–,–,–,703 nM,99.9%,7.21 µM,1.44 nM,17.2 µM,–
CN1CCCN(c2cncc(-c3cc(/C=C4\SC(=O)NC4=O)ccc3Cl)n2)CC1,> 30000 nM,< 50 nM,18.4 µM,92.1 nM,3010 nM,> 30000 nM,> 30 µM,–,–,–,–,–,< 50 nM
Cc1ccc(-c2cncc(N3CCCN(C)CC3)n2)cc1/C=C1\SC(=S)NC1=O,25700 nM,< 50 nM,22.2 µM,< 50 nM,2200 nM,9700 nM,16.3 µM,–,–,–,–,–,< 50 nM
CN1CCCN(c2cncc(-c3cc(/C=C4\SC(=O)NC4=O)ccc3F)n2)CC1,1550 nM,< 50 nM,1.18 µM,< 50 nM,197 nM,267 nM,6.71 µM,–,–,–,–,–,< 50 nM
CC(C)(C)CC(=O)N1CCCN(c2cncc(-c3cc(/C=C4/SC(=O)NC4=O)ccc3F)n2)CC1,1460 nM,< 50 nM,2.76 µM,< 50 nM,3230 nM,1210 nM,10.2 µM,–,–,–,–,–,–
CN1CCCN(c2cncc(-c3cc(/C=C4\SC(=S)NC4=O)ccc3F)n2)CC1,315 nM,50 nM,0.521 µM,< 50 nM,163 nM,186 nM,2.38 µM,–,–,–,–,–,< 50 nM
